Results from US20250305023A1, “MEASUREMENT OF PERMEATION OF SMALL MOLECULES INTO GRAM NEGATIVE BACTERIA” (University of Virginia Patent Foundation, priority 2022, published 2025).
≈ marks a conversion by molar mass, not a printed value.

Assays:
[1] = system: E. coli outer membrane; assay: Outer membrane disruption: co-treatment with R110cl in BaCAPA; type: cell-based, Escherichia coli; conditions: for cellular fluorescence on co-incubation with R110cl: various concentrations, 5 μM R110cl, FIG. 3A/3B
Source text: It is well appreciated that the OM is the major barrier to the permeation of small molecules.^28 Considerable efforts have been devoted to the discovery of molecules that disrupt the OM barrier as antibiotic adjuvants with the goal of potentiating them and/or circumventing resistance.^29-31 Therefore, these agents hold the promise of synergistically enhancing the permeation of potential antibiotics in a broad and, potentially, impactful way.
While there was a decrease in signal-to-noise, the signal strength in the presence of IPTG was well above that in the absence of IPTG.
Polymyxin nonapeptide (PMBN) mediated bacterial chloroalkane-tagged molecule penetration. For the PMBN-mediated penetration assay, 25 μL of the desired PMBN concentration was added into the wells of a 96-well plate at 3× the final concentration along with 25 μL of the HaloTag protein cell suspension (both IPTG induced and non-induced cells). Next, 25 μL of the serially diluted samples of the chloroalkane-tagged test molecule was added into the wells at 3× the desired final concentration, in quadruplicate. The plates were incubated at 37° C. with shaking at 250 RPM. After 30 min, the plate was centrifuged to pellet the cells using a Jouan C4i centrifuge (Thermofisher Scientific). The supernatant was discarded, and the pellet was washed twice with PBS. The chase step followed by addition into each test well, 50 μL of […] chloroalkane-tagged rhodamine 110 and incubated for 30 min at 37° C. with shaking in a shaker incubator at 250 RPM. The plate was centrifuged to pellet the cells and cells were washed three times with PBS and fixed with 4% formaldehyde by incubating at room temperature for 30 min. The cells were analyzed by flow cytometry on the Attune NXT Acoustic Focusing Cytometer (Invitrogen) by exciting using the blue laser ([…]).

[2] = system: E. coli cells
[3] = system: E. coli; assay: Minimum Inhibitory Concentration; type: cell-based, Escherichia coli; conditions: for MIC: Escherichia coli, 24 h, 37° C., MH media
Protocol: For all biological assays, laboratory strains of wild type E. coli (ATCC 25922), and K12 E. coli strains BL21(DE3) and E. coli Lemo21(DE3) were grown with shaking at 37° C. overnight from freezer glycerol stocks in 5 mL of Luria Broth (LB) media.
Minimum Inhibitory Concentration. Compounds were serially diluted 2-fold from stock solutions to yield 12 test concentrations in U-bottom, 96-well plates. Overnight cultures were used to inoculate LB media 1:100 and regrown to exponential phase, as determined by optical density recorded at 600 nm (OD600). All cultures were diluted again to ca. 10^6 CFU/mL in MH media, and 100 μL was inoculated into each well of a U-bottom 96-well plate (BD Biosciences, BD 351177) containing 100 μL of compound solution (in line with CLSI Standards).^4Plates were incubated statically at 37° C. for 24 h upon which time wells were evaluated visually for bacterial growth. The MIC was determined as the lowest concentration of compound resulting in no bacterial growth visible to the naked eye, based on the majority of three independent experiments. Growth and sterility controls were conducted for each plate.

[4] = system: E. coli expressing HaloTag; assay: Bacterial ChloroAlkane Penetration Assay (BaCAPA) pulse-chase, flow cytometry; type: cell-based, Escherichia coli; conditions: for EC50: Escherichia coli, pulse with chloroalkane-tagged molecule, IPTG induced, flow cytometry, read-out: EC50 (apparent accumulation/permeation, BaCAPA)
Source text: This method relies on the genetically encoded HaloTag^24, a mutant form of a bacterial haloalkane dehalogenase that facilitates covalent bond formation with chloroalkane-linked ligands (FIG. 1). […] The assay is based on the expression of the HaloTag protein inside bacterial cells, which are exposed to molecules of interest linked to a chloroalkane tag. If the molecules reach the HaloTag proteins inside the bacteria, they will be covalently bound to the protein. This pulse step is followed by a chase step with a fluorophore-linked chloroalkane. […] Conversely, when a large fraction of molecules of interest permeate the cell membranes and reach the HaloTag proteins, there will be reduced sites available to react with the fluorophore.
In some embodiments, the BaCAPA process can report on apparent accumulation of small molecules past the cellular envelope. In these embodiments, (non-fluorescent) small molecules modified with the chloroalkane are incubated with the bacterial cells expressing HaloTag first (pulse step), which is then followed by a treatment step with the dye R110cl (chase step).
HaloTag Protein Expression: Cytoplasmic HaloTag protein. For expression of the HaloTag protein in E. coli, HaloTag expression plasmid Cyto_Halo_pET21(b)+ was transformed into E. coli BL21(DE3) and grown on an LB/agar plate with ampicillin (100 μg/mL) at 37° C. overnight. Colonies were picked and grown in 5 mL LB broth with ampicillin at 37° C. overnight. A culture tube containing 2 mL LB media was inoculated with the overnight culture at a ratio of 1:100 and cells were grown at 37° C. for 3 h hours, or until the optical density at 600 nm reached 0.6. Cultures were induced with 1 mM Isopropyl β-d-1-thiogalactopyranoside (IPTG) at 37° C. for 2 hours in a shaker incubator, and then pelleted at 4,000 rpm for 3 min in an HERAEUS Multicentrifuge X1 centrifuge (Thermofisher Scientific). The pellet was washed three times with 1×PBS pH 7.2 following which cells were ready for assaying. The identity of the protein was confirmed by SDS-PAGE.
BaCAPA Pulse-Chase Protocol (chloroalkane-tagged molecule, chloroalkane-tagged dye). For a bacterial chloroalkane penetration assay (BaCAPA), 25 μL of serially diluted samples of the chloroalkane-tagged test molecule, in quadruplicate, were transferred into a 96-well plate at 2× of the desired concentration. The pellet obtained from the washing step above was resuspended in 2 mL of 1×PBS by vortexing thoroughly. […]

[5] = system: E. coli expressing HaloTag; assay: BaCAPA control: labeling with chloroalkane-tagged dye; type: cell-based, Escherichia coli; conditions: 5 μM dye, compared with R110cl, FIG. 2C
Protocol: In an embodiment, fluorescence levels were determined in bacterial cells that express HaloTag proteins in the cytosol by encoding the protein on an inducible plasmid. Bacterial cells carrying the HaloTag-expressing plasmid were grown to mid-log, induced with isopropyl-β-D-1-thiogalactopyranoside (IPTG), and incubated with a fluorophore modified chloroalkane. Cytosolic HaloTag promotes the formation of a covalent bond with the fluorophore-linked chloroalkane tail (FIG. 2A). Total labeling levels of bacterial cells is then quantified using flow cytometry. In a first step in the BaCAPA, bacterial cells were treated with Rhodamine 110 modified with chloroalkane (R110cl). […] Appreciating that the fluorophore itself could be subject to the same barrier elements that are inherent to E. coli, there was also evaluated the labeling of bacterial cells with a smaller fluorophore, namely coumarin (COMcl). […] While it was clear that coumarin could also covalently modify HaloTag-expressing bacterial cells, the relative fluorescence increase was more modest in cells treated with COMcl (FIG. 2C). […]
To empirically establish the dye concentration that optimizes the signal output for the assay, bacterial cells were treated with a range of R110cl concentrations (FIG. 2D). […] HaloTag labeling with R110cl can be analyzed from the whole cellular proteome because of the selectivity of this enzymatic reaction. […]

Compound: polymyxin B nonapeptide [PMBN]
- cellular fluorescence relative to cells not treated with PMBN ([1]; 10 μM of PMBN, co-treatment with R110cl): double
- cellular fluorescence on co-incubation with R110cl [1]: concentration-dependent increase in cellular fluorescence
- bacterial viability [2]: no loss of bacterial viability

Compound: O=C(NCCOCCOCCCCCCCl)c1cn(C2CC2)c2cc(N3CCNCC3)c(F)cc2c1=O [Compound 8, Ciprofloxacin-carboxy-HaloTag amide]
- MIC [3]: 4 µg/mL (≈ 7.45 µM)
- increase of MIC value ([3]; relative to derivatives 6 and 7): 8 fold

Compound: C[N+](C)(C)CC(=O)NCCOCCOCCCCCCCl [Compound 5, HaloTag-betainamide]
- relative accumulation in E. coli ([4]; methylation series of amino group, FIG. 4A): statistically significant lowered accumulation level

Compound: Cl.NCCOCCOCCCCCCCl [Compound 1, 2-(2-((6-Chlorohexyl)oxy)ethoxy)ethanamine hydrochloride]
- EC50 ([4]; chase with 5 μM R110cl): ~5 µM
- concentration at which nearly background fluorescence levels were observed ([4]; concentration scan, chase with 5 μM R110cl): 12 µM

Compound: Clc1cccc(CN=C2Nc3ccccc3NC23CCNCC3)c1 [liproxstatin]
- cellular fluorescence on co-incubation with R110cl [1]: increase in cellular fluorescence

Compound: O=C(CCC(=O)N1CCN(c2cc3c(cc2F)c(=O)c(C(=O)O)cn3C2CC2)CC1)NCCOCCOCCCCCCCl [Compound 6]
- EC50 ([4]; chase with 5 μM R110cl): 42.2 µM
- MIC [3]: 0.5 µg/mL (≈ 0.785 µM)

Compound: O=C(CN1CCN(c2cc3c(cc2F)c(=O)c(C(=O)O)cn3C2CC2)CC1)NCCOCCOCCCCCCCl [Compound 7]
- MIC [3]: 0.5 µg/mL (≈ 0.84 µM)

Compound: Cc1c(CC(=O)NCCOCCOCCCCCCCl)c(=O)oc2cc(N)ccc12 [COMcl]
- relative fluorescence increase in HaloTag-expressing cells [5]: more modest
